In patent publication US11970498B2, “CDK2 inhibitors” (BLUEPRINT MEDICINES CORPORATION, priority 2021, dated 2024):

Legend:
CDK1/Cyclin B1, GST-tag = target: T1, CDK1/Cyclin B1, GST-tag (Homo sapiens, UniProt P06493); test: CDK1/Cyclin B1 biochemical phosphorylation assay (Caliper mobility shift); conditions: apparent IC50; 1.0 mM ATP or ATP Km; 1.5 nM enzyme; 25° C.
T1 construct: GST
Method in brief: (§1)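 Caliper electrophoretic separation of substrate and phosphopeptide gave apparent IC50s. Enzymes: CDK1/Cyclin B1 GST-tag 1.5 nM, CDK2/Cyclin E 1.25 nM; ATP 1.0 mM or at Km; 7.5 µM FL-peptide; pH 7.5 HEPES buffer, 1% DMSO; room temperature until 10–20% phosphorylated, then EDTA quench.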

CDK2/Cyclin E = CDK2/Cyclin E (Homo sapiens, UniProt P24941); test: CDK2/Cyclin E biochemical phosphorylation assay (Caliper mobility shift); conditions: apparent IC50; 1.0 mM ATP or ATP Km; 1.25 nM enzyme; 25° C.; read-out: CDK2/cyclin E1 IC50
Method in brief: as §1

T1 sequence (P06493 whole entry): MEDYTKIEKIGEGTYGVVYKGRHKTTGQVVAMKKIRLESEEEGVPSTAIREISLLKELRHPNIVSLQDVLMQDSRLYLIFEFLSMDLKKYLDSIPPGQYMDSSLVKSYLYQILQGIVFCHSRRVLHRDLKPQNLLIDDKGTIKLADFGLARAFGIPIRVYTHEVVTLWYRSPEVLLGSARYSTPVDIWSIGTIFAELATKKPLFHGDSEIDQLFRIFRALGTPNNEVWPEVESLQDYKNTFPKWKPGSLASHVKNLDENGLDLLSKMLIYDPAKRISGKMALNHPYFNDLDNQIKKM
T1 sequence (P14635 whole entry partner): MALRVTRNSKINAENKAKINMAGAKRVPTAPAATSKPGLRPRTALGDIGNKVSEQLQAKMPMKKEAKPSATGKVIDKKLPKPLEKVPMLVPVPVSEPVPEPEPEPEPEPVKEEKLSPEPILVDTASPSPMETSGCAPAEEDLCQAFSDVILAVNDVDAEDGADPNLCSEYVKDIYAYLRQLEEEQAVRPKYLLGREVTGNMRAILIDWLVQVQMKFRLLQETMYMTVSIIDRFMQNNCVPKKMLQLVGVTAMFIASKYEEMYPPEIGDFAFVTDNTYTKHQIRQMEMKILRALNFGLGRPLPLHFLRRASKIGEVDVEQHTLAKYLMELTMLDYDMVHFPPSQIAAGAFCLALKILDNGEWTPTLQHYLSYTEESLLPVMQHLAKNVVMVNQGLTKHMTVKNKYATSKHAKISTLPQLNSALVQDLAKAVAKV

**Q.** For `C[C@@H](C1CCOCC1)n1nc(C#N)c2ncc(Nc3cc(OC(F)F)[nH]n3)nc21` [Example 64, (S)-6-((5-(difluoromethoxy)-1H-pyrazol-3-yl)amino)-1-(1-(tetrahydro-2H-pyran-4-yl)ethyl)-1H-pyrazolo[3,4-b]pyrazine-3-carbonitrile], which IC50 (CDK1/Cyclin B1, GST-tag) is on record?
**A.** ≥ 500 nM

**Q.** And the IC50 (CDK2/Cyclin E)?
**A.** 20 to 30 nM

**Q.** With `C[C@H](c1cccc(F)n1)n1ncc2ncc(Nc3cc(OC(F)F)[nH]n3)nc21` (single isomer, unassigned) [Example 156, (S)-N-(5-(difluoromethoxy)-1H-pyrazol-3-yl)-1-(1-(6-fluoropyridin-2-yl)ethyl)-1H-pyrazolo[3,4-b]pyrazin-6-amine or (R)-N-(5-(difluoromethoxy)-1H-pyrazol-3-yl)-1-(1-(6-fluoropyridin-2-yl)ethyl)-1H-pyrazolo[3,4-b]pyrazin-6-amine] as the compound, how does the IC50 (CDK1/Cyclin B1, GST-tag) read?
**A.** ≥ 500 nM

**Q.** And the IC50 (CDK2/Cyclin E)?
**A.** ≤ 10 nM

**Q.** What does the source list for `N#C[C@@H]1C[C@H]1Cn1ncc2ncc(Nc3cc(OC(F)F)[nH]n3)nc21` (single isomer, unassigned) [Example 26, (1R,2R)-2-((6-((5-(difluoromethoxy)-1H-pyrazol-3-yl)amino)-1H-pyrazolo[3,4-b]pyrazin-1-yl)methyl)cyclopropane-1-carbonitrile or (1S,2S)-2-((6-((5-(difluoromethoxy)-1H-pyrazol-3-yl)amino)-1H-pyrazolo[3,4-b]pyrazin-1-yl)methyl)cyclopropane-1-carbonitrile]?
**A.** IC50 (CDK1/Cyclin B1, GST-tag): ≥ 500 nM; IC50 (CDK2/Cyclin E): > 100 nM

**Q.** Which results are given for `FC(F)Oc1cc(Nc2cnc3cnn(CC45CC(F)(C4)C5)c3n2)n[nH]1` [Example 116, N-(5-(difluoromethoxy)-1H-pyrazol-3-yl)-1-((3-fluorobicyclo[1.1.1]pentan-1-yl)methyl)-1H-pyrazolo[3,4-b]pyrazin-6-amine]?
**A.** IC50 (CDK1/Cyclin B1, GST-tag): ≥ 500 nM; IC50 (CDK2/Cyclin E): ≤ 10 nM

**Q.** Which IC50 (CDK1/Cyclin B1, GST-tag) does the source give for `[2H]C([2H])(C1CCOCC1)n1ncc2ncc(Nc3cc(OC(F)F)[nH]n3)nc21` [Example 226, N-(5-(difluoromethoxy)-1H-pyrazol-3-yl)-1-((tetrahydro-2H-pyran-4-yl)methyl-d2)-1H-pyrazolo[3,4-b]pyrazin-6-amine] here?
**A.** 100 to 500 nM

**Q.** And the IC50 (CDK2/Cyclin E)?
**A.** ≤ 10 nM

**Q.** Which results are given for `FC[C@@H](C1CCOCC1)n1ncc2ncc(Nc3cc(OC(F)F)[nH]n3)nc21` (single isomer, unassigned) [Example 31]?
**A.** IC50 (CDK1/Cyclin B1, GST-tag): < 100 nM; IC50 (CDK2/Cyclin E): ≤ 10 nM

**Q.** Which IC50 (CDK1/Cyclin B1, GST-tag) does the source give for `C[C@@H](c1cccnc1F)n1nc(C#N)c2ncc(Nc3cc(OC(F)F)[nH]n3)nc21` [Example 63, (S)-6-((5-(difluoromethoxy)-1H-pyrazol-3-yl)amino)-1-(1-(2-fluoropyridin-3-yl)ethyl)-1H-pyrazolo[3,4-b]pyrazine-3-carbonitrile] here?
**A.** 100 to 500 nM

**Q.** And the IC50 (CDK2/Cyclin E)?
**A.** ≤ 10 nM

**Q.** With `COc1cc(Nc2cnc3cnn([C@@H](C(F)F)C4CCOCC4)c3n2)n[nH]1` (single isomer, unassigned) [Example 192, (R)-1-(2,2-difluoro-1-(tetrahydro-2H-pyran-4-yl)ethyl)-N-(5-methoxy-1H-pyrazol-3-yl)-1H-pyrazolo[3,4-b]pyrazin-6-amine or (S)-1-(2,2-difluoro-1-(tetrahydro-2H-pyran-4-yl)ethyl)-N-(5-methoxy-1H-pyrazol-3-yl)-1H-pyrazolo[3,4-b]pyrazin-6-amine] as the compound, how does the IC50 (CDK1/Cyclin B1, GST-tag) read?
**A.** ≥ 500 nM

**Q.** And the IC50 (CDK2/Cyclin E)?
**A.** > 100 nM

**Q.** With `O[C@@H]1C[C@H]1Cn1ncc2ncc(Nc3cc(OC(F)F)[nH]n3)nc21` (single isomer, unassigned) [Example 180, (1S,2R)-2-((6-((5-(difluoromethoxy)-1H-pyrazol-3-yl)amino)-1H-pyrazolo[3,4-b]pyrazin-1-yl)methyl)cyclopropan-1-ol or (1R,2S)-2-((6-((5-(difluoromethoxy)-1H-pyrazol-3-yl)amino)-1H-pyrazolo[3,4-b]pyrazin-1-yl)methyl)cyclopropan-1-ol] as the compound, how does the IC50 (CDK1/Cyclin B1, GST-tag) read?
**A.** ≥ 500 nM

**Q.** And the IC50 (CDK2/Cyclin E)?
**A.** 20 to 30 nM

**Q.** What does the source list for `[2H]C([2H])([2H])Oc1cc(Nc2cnc3cnn(Cc4cccnc4)c3n2)n[nH]1` [Example 227, N-(5-(methoxy-d3)-1H-pyrazol-3-yl)-1-(pyridin-3-ylmethyl)-1H-pyrazolo[3,4-b]pyrazin-6-amine]?
**A.** IC50 (CDK1/Cyclin B1, GST-tag): ≥ 500 nM; IC50 (CDK2/Cyclin E): 10 to 20 nM

**Q.** Which results are given for `C[C@@H](c1ncccc1F)n1ncc2ncc(Nc3cc(OC(F)F)[nH]n3)nc21` [Example 50, (S)-N-(5-(difluoromethoxy)-1H-pyrazol-3-yl)-1-(1-(3-fluoropyridin-2-yl)ethyl)-1H-pyrazolo[3,4-b]pyrazin-6-amine]?
**A.** IC50 (CDK1/Cyclin B1, GST-tag): ≥ 500 nM; IC50 (CDK2/Cyclin E): ≤ 10 nM

**Q.** Which IC50 (CDK1/Cyclin B1, GST-tag) does the source give for `COc1cc(Nc2cnc3cnn([C@@H](C(F)F)C4CCOCC4)c3n2)n[nH]1` (single isomer, unassigned) [Example 193, (S)-1-(2,2-difluoro-1-(tetrahydro-2H-pyran-4-yl)ethyl)-N-(5-methoxy-1H-pyrazol-3-yl)-1H-pyrazolo[3,4-b]pyrazin-6-amine or (R)-1-(2,2-difluoro-1-(tetrahydro-2H-pyran-4-yl)ethyl)-N-(5-methoxy-1H-pyrazol-3-yl)-1H-pyrazolo[3,4-b]pyrazin-6-amine] here?
**A.** ≥ 500 nM

**Q.** And the IC50 (CDK2/Cyclin E)?
**A.** 10 to 20 nM

**Q.** For `CC[C@@H](c1ccccn1)n1ncc2ncc(Nc3cc(OC(F)F)[nH]n3)nc21` [Example 97, (S)-N-(5-(difluoromethoxy)-1H-pyrazol-3-yl)-1-(1-(pyridin-2-yl)propyl)-1H-pyrazolo[3,4-b]pyrazin-6-amine], which IC50 (CDK1/Cyclin B1, GST-tag) is on record?
**A.** ≥ 500 nM

**Q.** And the IC50 (CDK2/Cyclin E)?
**A.** ≤ 10 nM

**Q.** Which IC50 (CDK1/Cyclin B1, GST-tag) does the source give for `COc1cc(Nc2cnc3cnn([C@@H](C)c4cncs4)c3n2)n[nH]1` [Example 74, (S)-N-(5-methoxy-1H-pyrazol-3-yl)-1-(1-(thiazol-5-yl)ethyl)-1H-pyrazolo[3,4-b]pyrazin-6-amine] here?
**A.** ≥ 500 nM

**Q.** What about the IC50 (CDK2/Cyclin E) of the same compound?
**A.** 20 to 30 nM

**Q.** Which IC50 (CDK1/Cyclin B1, GST-tag) does the source give for `Fc1nn(CC2CCOCC2)c2nc(Nc3cc(OC(F)F)[nH]n3)cnc12` [Example 117, N-(5-(difluoromethoxy)-1H-pyrazol-3-yl)-3-fluoro-1-((tetrahydro-2H-pyran-4-yl)methyl)-1H-pyrazolo[3,4-b]pyrazin-6-amine] here?
**A.** 100 to 500 nM

**Q.** And the IC50 (CDK2/Cyclin E)?
**A.** ≤ 10 nM

**Q.** What does the source list for `CC(C1CCCOC1)n1ncc2ncc(Nc3cc(OC(F)F)[nH]n3)nc21` (single isomer, unassigned) [Example 218]?
**A.** IC50 (CDK1/Cyclin B1, GST-tag): < 100 nM; IC50 (CDK2/Cyclin E): ≤ 10 nM

**Q.** `C[C@@H](CCO)n1ncc2ncc(Nc3cc(OC(F)F)[nH]n3)nc21` (single isomer, unassigned) [Example 206, (R)-3-(6-((5-(difluoromethoxy)-1H-pyrazol-3-yl)amino)-1H-pyrazolo[3,4-b]pyrazin-1-yl)butan-1-ol or (S)-3-(6-((5-(difluoromethoxy)-1H-pyrazol-3-yl)amino)-1H-pyrazolo[3,4-b]pyrazin-1-yl)butan-1-ol] was tested. Which IC50 (CDK1/Cyclin B1, GST-tag) did it give?
**A.** ≥ 500 nM

**Q.** What about the IC50 (CDK2/Cyclin E) of the same compound?
**A.** > 100 nM

**Q.** Which IC50 (CDK1/Cyclin B1, GST-tag) does the source give for `CC[C@H]([C@H](C)O)n1ncc2ncc(Nc3cc(OC(F)F)[nH]n3)nc21` (single isomer, unassigned) [Example 5, (2S,3R)-3-(6-((5-(difluoromethoxy)-1H-pyrazol-3-yl)amino)-1H-pyrazolo[3,4-b]pyrazin-1-yl)pentan-2-ol or (2S,3S)-3-(6-((5-(difluoromethoxy)-1H-pyrazol-3-yl)amino)-1H-pyrazolo[3,4-b]pyrazin-1-yl)pentan-2-ol] here?
**A.** ≥ 500 nM

**Q.** What about the IC50 (CDK2/Cyclin E) of the same compound?
**A.** ≤ 10 nM

**Q.** Which results are given for `Cc1nn(Cc2cccnc2)c2nc(Nc3cc(OC(F)F)[nH]n3)cnc12` [Example 84, N-(5-(difluoromethoxy)-1H-pyrazol-3-yl)-3-methyl-1-(pyridin-3-ylmethyl)-1H-pyrazolo[3,4-b]pyrazin-6-amine]?
**A.** IC50 (CDK1/Cyclin B1, GST-tag): ≥ 500 nM; IC50 (CDK2/Cyclin E): ≤ 10 nM

**Q.** Which IC50 (CDK1/Cyclin B1, GST-tag) does the source give for `C[C@@H](c1cncs1)n1ncc2ncc(Nc3cc(OC(F)F)[nH]n3)nc21` [Example 58, (S)-N-(5-(difluoromethoxy)-1H-pyrazol-3-yl)-1-(1-(thiazol-5-yl)ethyl)-1H-pyrazolo[3,4-b]pyrazin-6-amine] here?
**A.** ≥ 500 nM

**Q.** And the IC50 (CDK2/Cyclin E)?
**A.** ≤ 10 nM

**Q.** Which results are given for `C[C@@H](c1cc(F)ccn1)n1ncc2ncc(Nc3cc(OC(F)F)[nH]n3)nc21` (single isomer, unassigned) [Example 13, (S)—N-(5-(difluoromethoxy)-1H-pyrazol-3-yl)-1-(1-(4-fluoropyridin-2-yl)ethyl)-1H-pyrazolo[3,4-b]pyrazin-6-amine or (R)—N-(5-(difluoromethoxy)-1H-pyrazol-3-yl)-1-(1-(4-fluoropyridin-2-yl)ethyl)-1H-pyrazolo[3,4-b]pyrazin-6-amine]?
**A.** IC50 (CDK1/Cyclin B1, GST-tag): < 100 nM; IC50 (CDK2/Cyclin E): ≤ 10 nM

**Q.** With `FC(F)Oc1cc(Nc2cnc3cnn([C@@H]4CCCOC4)c3n2)n[nH]1` [Example 78, (R)-N-(5-(difluoromethoxy)-1H-pyrazol-3-yl)-1-(tetrahydro-2H-pyran-3-yl)-1H-pyrazolo[3,4-b]pyrazin-6-amine] as the compound, how does the IC50 (CDK1/Cyclin B1, GST-tag) read?
**A.** ≥ 500 nM

**Q.** What about the IC50 (CDK2/Cyclin E) of the same compound?
**A.** 30 to 100 nM

**Q.** `COc1cc(Nc2cnc3cnn(C[C@@H]4CCCOC4)c3n2)n[nH]1` [Example 139, (S)-N-(5-methoxy-1H-pyrazol-3-yl)-1-((tetrahydro-2H-pyran-3-yl)methyl)-1H-pyrazolo[3,4-b]pyrazin-6-amine] was tested. Which IC50 (CDK1/Cyclin B1, GST-tag) did it give?
**A.** ≥ 500 nM

**Q.** And the IC50 (CDK2/Cyclin E)?
**A.** 10 to 20 nM

**Q.** What does the source list for `C[C@@H]([C@H]1CCCOC1)n1ncc2ncc(Nc3cc(OC(F)F)[nH]n3)nc21` (single isomer, unassigned) [Example 216]?
**A.** IC50 (CDK1/Cyclin B1, GST-tag): ≥ 500 nM; IC50 (CDK2/Cyclin E): 10 to 20 nM

**Q.** Which results are given for `C[C@H](c1cccc(F)n1)n1ncc2ncc(Nc3cc(OC(F)F)[nH]n3)nc21` (single isomer, unassigned) [Example 155, (R)-N-(5-(difluoromethoxy)-1H-pyrazol-3-yl)-1-(1-(6-fluoropyridin-2-yl)ethyl)-1H-pyrazolo[3,4-b]pyrazin-6-amine or (S)-N-(5-(difluoromethoxy)-1H-pyrazol-3-yl)-1-(1-(6-fluoropyridin-2-yl)ethyl)-1H-pyrazolo[3,4-b]pyrazin-6-amine]?
**A.** IC50 (CDK1/Cyclin B1, GST-tag): ≥ 500 nM; IC50 (CDK2/Cyclin E): 30 to 100 nM
